Here are results for two compounds from EP2357172B1, “Process for the preparation of pimozide” (Institut Univ. de Ciència i Tecnologia, S.A., priority 2006, dated 2008).

The test system of data set [1] is rats. The note with it: cited from earlier work.
Data set [2] has as its system rats. Kind of data set: Oral lethal dose (LD50) in rats, from safety data sheets. The class given is in vivo. The conditions noted are these: glycerol formal compared with MIBK. The source says:
The data for MIBK were obtained from the International Chemical Safety Card published by "Instituto Nacional de Seguridad e Higiene en el Trabajo" (National Institute for Occupational Safety and Hygiene). The data for glycerol formal were obtained from the most recent manufacturer's standard safety data sheet.

For data set [3] the following is noted: cited from earlier work.

With `CC(=O)CC(C)C` [MIBK, methylisobutylketone], the “LD50(oral-rats, g/kg)” value with rats [1] was 2.1 g/kg.

Take GLYCEROL FORMAL: the “LD50(oral-rats, g/kg)” value in the data set with rats [1] was 10 g/kg. Besides, the “lethal dose in rats (ingestion) relative to MIBK” value in the data set on rats [2] is “five times higher”. The “Solubility in H2O (g/L)” value in data set [3] was “Miscible in all proportions”.
